{"source": "patent US9303069B2", "about": "“Peptides for treating cancer” (University of Mississippi Medical Center, priority 2014, dated 2016)", "key": {"BRCA1-IRIS": {"system": "BRCA1-IRIS", "assay": "BRCA1-IRIS expression in ovarian cells (Western analysis)", "type": "cell-based, human", "conditions": "all ovarian cell lines; 10 μM of IRIS peptide for 24 hours", "excerpt": "At these low concentrations of cisplatin BRCA1-IRIS expression was induced in HOSE cells and remained high in HOSE/IRIS cells (FIG. 17). […] Cell lines expressing the lowest levels of BRCA1-IRIS (i.e."}, "AKT, ERK, MDM2 and Skp2": {"system": "AKT, ERK, MDM2 and Skp2", "assay": "Signalling proteins in SKOV3 and OVCAR3 cells (Western)", "type": "cell-based, human", "excerpt": "Finally, to further dissect the IRIS-induced cisplatin resistance pathway, PI3′K/AKT (using […]) and ERK (using PD98059) were inactivated and compared to IRIS peptide in two aggressive ovarian cancer cell lines. […] Phosphorylation of cytoplasmic or nuclear FOXO3a by p-AKT and/or p-ERK promotes MDM2 binding and priming ubiquitylation, which is then followed by Skp2 branching ubiquitylation and FOXO3a degradation (Huang and Tindall, 2011). FOXO was less phosphorylated in LY, PD as well as IRIS-silenced/inactivated SKOV3 or OVCAR3 cells (FIG. 34). […] Consistently, in BRCA1-IRIS silenced/inactivated cells accumulation of unphosphorylated/stabilized FOXO3a was detected. In contrast, FOXO3a was still decreased to different degrees in LY or PD treated cells (FIG. 34)."}, "SKOV3 cells": {"system": "SKOV3 cells", "assay": "Tumor-sphere forming assay, SKOV3", "type": "cell-based, human", "conditions": "SKOV3, ultra-low binding dishes, two weeks; IRIS peptide 5 μM every third day", "experimental": "Tumor-sphere: SKOV3 cells treated with scrambled or IRIS peptide (5 μM, added every third day) or expressing BRCA1-IRIS shRNA were grown in ultra-low binding culture dishes as single cells. […] BRCA1-IRIS silencing led to ˜7 fold decrease in tumor-sphere number (FIG. 43) and diameter (FIG. 43, inset), and an even more pronounced effect was detected with IRIS peptide (FIG. 43, and inset).\nTumor-sphere forming assay. Subconfluent monolayer cells were trypsinized and dissociated thoroughly to prepare single cell suspension. 1000 cells were plated, per well, onto ultra-low attachment 6-well plates (Corning Life Sciences, Union City, Calif.) in Dulbecco's modified Eagle's medium (DMEM)/F12 supplemented with 10% FBS, 2% B27 (Invitrogen), 10 ng/ml basic-fibroblast growth factor and 10 ng/mL epidermal growth factor. Cells were then incubated at 37° C. in humidified air with 10% CO2. 500 μl of medium was added to each well every 3 days, the medium containing the scrambled or IRIS peptide. […]"}, "SKOV3 tumors": {"system": "SKOV3 tumors", "assay": "In vivo efficacy on established SKOV3 tumors", "parameters": "species or system mice", "conditions": "day 16; cisplatin 5 mg/kg i.p., IRIS peptide 10 mg/kg i.t., every third day, four times", "experimental": "Further, to determine whether IRIS peptide could have any efficacy in vivo and/or whether it sensitizes ovarian tumors to low, clinically relevant concentrations of cisplatin, four sets of nude mice (n=6 each) were subcutaneously injected with SKOV3 cells. Ten days later, when tumors were ˜250 mm^3 in volume, one group was treated with controls (i.e. DMSO delivered i.p. and scrambled peptide delivered directly into the tumors, i.t.), a second group was treated with cisplatin (5 mg/kg, delivered i.p.), a third group was treated with IRIS peptide (10 mg/kg, injected i.t.), and a fourth group was treated with both. Treatments were delivered every third day for a total of four times. For the next 16 days, tumors were measured daily with a caliper. Mice were then sacrificed, and their tumors or their remnants were taken.\nEfficacy of BRCA1-IRIS inhibitory peptide, in vivo. Six to eight week old female athymic SCID mice were injected subcutaneously with 2.5×10^6 SKOV3 cells in the flank region. Their respective tumor growth was measured with a caliper. When the tumor volume reached 250 mm^3, mice were randomly grouped into four groups. One group (control) was treated with scrambled peptide (10 mg/kg) and DMSO. A second was treated with BRCA1-IRIS inhibitory peptide (10 mg/kg, body weight). […] Change in tumor volume was measured to monitor the efficacy of the treatment. […]"}, "[1]": {"system": "HME, HME/IRIS, MDA-MB-231, MDA-MB-468 and BT549 cells", "assay": "Survival of breast cell lines with IRIS peptide, paclitaxel or both", "type": "cell-based, human", "conditions": "all cell lines; IRIS peptide alone, 0.5 μM (HME) or 5 μM (others), 24 hours", "experimental": "To investigate whether inactivating BRCA1-IRIS could sensitize TNBC to paclitaxel-induced cell death, HME cells were exposed to 0.5 μM, while HME/IRIS, MDA-MB-231, MDA-MB-468 and BT549 cells were exposed to 5 μM of IRIS peptide alone or with 5, 10 or 20 μM of paclitaxel for 24 hours. […] Again, IRIS peptide alone at these concentrations led to 50% reduction in survival of all cell lines. […] Indeed, in the presence of IRIS peptide >60%, >70% and >90% reduction in the survival of all cell lines in the presence of 5, 10 and 20 μM of paclitaxel, respectively (FIG. 84).\nCell viability measurement. Cell viability under different experimental conditions was determined using the MTS assay. Briefly, cells (2.5×10^4 cells per well) were seeded in 96-well plates and incubated overnight at 37° C. in 10% humidified CO2 atmosphere. The next day they were incubated with varying concentration of peptide, or inhibitors for 24 hours at 37° C. Cell viability was determined using cell Titer 96® Aqueous (Promega, Madison, Wis., USA) following manufacturer's instructions. Cell viability (%) was expressed as a ratio of treated cells to control cells×100. Growth inhibition was also determined by manually counting cells in five different microscopic fields. Change in cell numbers (fold) was expressed as a ratio of the means of these recording of treated cells compared to control cells×100. Each experiment was done in triplicate, repeated three separate times."}, "caspase 3/7": {"system": "caspase 3/7", "assay": "Cleaved / activated caspase 3/7 in MDA-MB-231 and MDA-MB-468 cells", "type": "cell-based, human", "conditions": "increasing concentrations of IRIS peptide", "experimental": "To assess whether BRCA1-IRIS inactivation can sensitize TNBC cells to lower paclitaxel concentrations, MDA-MB-231 and MDA-MB-468 were exposed to 1 μM of paclitaxel 0, 1, 2, 5 and 10 μM of IRIS peptide for 24 hours. […] Perhaps more importantly, in the presence of only 1 μM of paclitaxel, the IC50 of IRIS peptide was reduced to <2 μM in both cell lines (dark color lines in FIG. 85)."}}, "note": "“Also recorded” adds a separate entry of the source. Ends that are not written are not given here.", "data": [{"sequence": "RRIRPRPPRLPRPRPRPLPFPRPGIGTRFLCLPQSIYRSELNVYAFGEHILQISKYS [IRIS peptide]", "values": [{"measurement": "BRCA1-IRIS expression", "setting": "BRCA1-IRIS", "result": "significant reduction in BRCA1-IRIS expression"}, {"measurement": "AKT and ERK expression and activation", "setting": "AKT, ERK, MDM2 and Skp2", "result": "decreased expression and inactivated AKT and ERK"}, {"measurement": "tumor-sphere formation", "setting": "SKOV3 cells", "result": "formed no tumor-spheres"}, {"measurement": "reduction in tumor size", "setting": "SKOV3 tumors", "result": "~50", "unit": "%"}, {"measurement": "reduction in survival", "setting": "[1]", "result": 50, "unit": "%"}, {"measurement": "cleaved / activated caspase 3/7", "setting": "caspase 3/7", "result": "gradual increase in activated caspase 3/7; also recorded: increase cleaved caspase 3/7 in both cell lines"}]}]}
